In patent US11267824B2, “Inhibitors of indoleamine 2,3-dioxygenase and/or tryptophan 2,3-dioxygenase” (IDORSIA PHARMACEUTICALS LTD, priority 2017, dated 2022):
Where two headings read alike, the source gives them in different places.

Tests used:
[1] = molecular target: Recombinant full-length human IDO1 (Homo sapiens (Human), UniProt P14902); test: IDO1 enzymatic assay (IDO inhibitory activity); type: biochemical; details: 2 nM enzyme, 5 μM L-tryptophan, pH6.5, 30 min pre-incubation, NFK quantified by LCMS; mean values if measured multiple times; read-out: hIDO activity (IC50 in nM)
Outline: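 N-His-tagged enzyme from E. coli at 2 nM in 37.5 mM phosphate pH6.5 with ascorbate, methylene blue, catalase; compounds 10 μM–0.5 nM, 0.6% DMSO, pre-incubated 30 min RT, then 5 μM L-tryptophan for 30 min RT. NFK quantified by LCMS against d5-tryptophan; IC50 from duplicate four-parameter fit, means where repeated.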

[2] = molecular target: Recombinant human TDO comprising amino acids 19-407 (Homo sapiens (Human), UniProt P48775); test: TDO2 enzymatic assay (TDO inhibitory activity); type: biochemical; details: 15 nM enzyme, 200 μM L-tryptophan, pH7, 30 min pre-incubation, NFK quantified by LCMS, mean values if measured multiple times
Outline: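 His-tagged enzyme (15 nM, E. coli-expressed) in pH 7 phosphate buffer with ascorbate, catalase, BSA, Tween 20, 0.6% DMSO; 30 min RT pre-incubation with compound (10 μM–0.5 nM), then 200 μM L-tryptophan for 30 min RT. N′-formylkynurenine quantified by LCMS against deuterated tryptophan; IC50 by four-parameter fit, duplicates.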

[3] = read-out: hTDO activity (IC50 in nM)

Recombinant full-length human IDO1, sequence (P14902 whole entry): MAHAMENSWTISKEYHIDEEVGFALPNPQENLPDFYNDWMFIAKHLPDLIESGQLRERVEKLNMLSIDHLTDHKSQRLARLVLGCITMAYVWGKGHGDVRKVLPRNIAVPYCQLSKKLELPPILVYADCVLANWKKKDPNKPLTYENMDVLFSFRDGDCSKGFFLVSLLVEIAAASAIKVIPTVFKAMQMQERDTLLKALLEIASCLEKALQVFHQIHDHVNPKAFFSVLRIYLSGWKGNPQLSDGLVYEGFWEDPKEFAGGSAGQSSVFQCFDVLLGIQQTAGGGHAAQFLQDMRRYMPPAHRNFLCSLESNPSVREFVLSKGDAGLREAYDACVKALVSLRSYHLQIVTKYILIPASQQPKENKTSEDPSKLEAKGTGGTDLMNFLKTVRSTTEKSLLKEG
Recombinant human TDO comprising amino acids 19-407, sequence (P48775 19-406 limits assumed): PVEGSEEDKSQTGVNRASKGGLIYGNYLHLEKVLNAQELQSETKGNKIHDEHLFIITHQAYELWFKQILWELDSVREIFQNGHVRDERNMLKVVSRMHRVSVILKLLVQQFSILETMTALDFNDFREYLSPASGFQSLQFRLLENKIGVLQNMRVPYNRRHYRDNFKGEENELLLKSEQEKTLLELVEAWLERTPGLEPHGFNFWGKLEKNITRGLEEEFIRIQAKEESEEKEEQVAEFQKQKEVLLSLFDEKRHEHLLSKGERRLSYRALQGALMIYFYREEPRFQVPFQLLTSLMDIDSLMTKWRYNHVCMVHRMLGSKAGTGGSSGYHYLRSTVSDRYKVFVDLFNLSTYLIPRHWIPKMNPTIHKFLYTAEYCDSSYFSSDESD

Row | SMILES | IC50 [1] | IC50 [2, 3] | IC50 ([2]; hTDO activity (IC50 in nM))
1 | OC(c1c(C2CC2)sc2cncn12)[C@H]1C[C@@H]2CC[C@H]1C2 (relative stereo) [Example 20, rac-(1R*,2R*,4S*)-Bicyclo[2.2.1]hept-2-yl-(2-cyclopropyl-imidazo[5,1-b]thiazol-3-yl)-methanol] | 16.1 nM |  | 190 nM
2 | OC(c1c([C@@H]2C[C@@H]2F)sc2cncn12)C1CCCCC1 (relative stereo) [Example 186, Cyclohexyl-[2-(cis-2-fluoro-cyclopropyl)-imidazo[5,1-b]thiazol-3-yl]-methanol] | 21.8 nM | 491 nM | 
3 | Cc1sc2cncn2c1C(O)[C@H]1C[C@@H]1c1ccccc1 (single isomer, unassigned) [Example 167, rac-(S*)-(2-Methyl-imidazo[5,1-b]thiazol-3-yl)-((1S*,2S*)-2-phenyl-cyclopropyl)-methanol] | 338 nM | > 10200 nM | 
4 | Cc1sc2cncn2c1C(O)[C@H]1C[C@@H]1c1ccccc1 (single isomer, unassigned) [Example 168, rac-(R*)-(2-Methyl-imidazo[5,1-b]thiazol-3-yl)-((1S*,2S*)-2-phenyl-cyclopropyl)-methanol] | 123 nM | 2710 nM | 
5 | Cc1sc2cncn2c1[C@@H](O)C1CCCCC1 [Example 6a, (S)-Cyclohexyl-(2-methyl-imidazo[5,1-b]thiazol-3-yl)-methanol] | 37.3 nM | 60.4 nM | 
6 | O[C@H](c1c(C2CCC2)sc2cncn12)C1CCCCC1 [Example 7a, (S)-(2-Cyclobutylimidazo[5,1-b]thiazol-3-yl)(cyclohexyl)methanol] | 39.7 nM | 138 nM | 
7 | O[C@@H](CC1CCCCC1)c1c(C2CCC2)sc2cncn12 [Example 8a, (S)-1-(2-Cyclobutylimidazo[5,1-b]thiazol-3-yl)-2-cyclohexylethan-1-ol] | 72.3 nM | 129 nM | 
8 | O[C@H](c1c(C2CCCC2)sc2cncn12)C1CCCCC1 [Example 9a, (S)-Cyclohexyl(2-cyclopentylimidazo[5,1-b]thiazol-3-yl)methanol] | 131 nM | 131 nM | 
9 | O[C@@H](CC1CCCCC1)c1c(C2CCCC2)sc2cncn12 [Example 10a, (S)-2-Cyclohexyl-1-(2-cyclopentylimidazo[5,1-b]thiazol-3-yl)ethan-1-ol] | 190 nM | 164 nM | 
10 | O[C@H](c1c(Cl)sc2cncn12)C1CCCCC1 [Example 13a, (S)-(2-Chloroimidazo[5,1-b]thiazol-3-yl)(cyclohexyl)methanol] | 93 nM | 162 nM | 
11 | O[C@@H](CC1CCCCC1)c1c(Cl)sc2cncn12 [Example 16a, (S)-1-(2-Chloro-imidazo[5,1-b]thiazol-3-yl)-2-cyclohexyl-ethanol] | 35.6 nM | 658 nM | 
12 | O[C@@H](CC1CCCCCC1)c1c(C2CC2)sc2cncn12 [Example 28a, (S)-2-Cycloheptyl-1-(2-cyclopropyl-imidazo[5,1-b]thiazol-3-yl)-ethanol] | 22.2 nM | 358 nM | 
13 | CC1CCCC(CC(O)c2c(C3CC3)sc3cncn23)C1 (stereo not shown) [Example 29, 1-(2-Cyclopropyl-imidazo[5,1-b]thiazol-3-yl)-2-(3-methyl-cyclohexyl)-ethanol] | 21.4 nM | 509 nM | 
14 | CC1CCCCC1CC(O)c1c(C2CC2)sc2cncn12 (stereo not shown) [Example 31, 1-(2-Cyclopropyl-imidazo[5,1-b]thiazol-3-yl)-2-(2-methyl-cyclohexyl)-ethanol] | 45.2 nM | 411 nM | 
15 | CC1(C)CCC(CC(O)c2c(C3CC3)sc3cncn23)C1 (stereo not shown) [Example 34, 1-(2-Cyclopropyl-imidazo[5,1-b]thiazol-3-yl)-2-(3,3-dimethyl-cyclopentyl)-ethanol] | 39.4 nM | 321 nM | 
16 | OC(CC1CCC(c2ccccc2)C1)c1c(C2CC2)sc2cncn12 (stereo not shown) [Example 35, 1-(2-Cyclopropyl-imidazo[5,1-b]thiazol-3-yl)-2-(3-phenyl-cyclopentyl)-ethanol] | 114 nM | 1570 nM | 
17 | OC(CC1CC2C=CC1C2)c1c(C2CC2)sc2cncn12 (stereo not shown) [Example 38, 2-Bicyclo[2.2.1]hept-5-en-2-yl-1-(2-cyclopropyl-imidazo[5,1-b]thiazol-3-yl)-ethanol] | 22.6 nM | 191 nM | 
18 | OC(CC1CC2CCC1O2)c1c(C2CC2)sc2cncn12 (stereo not shown) [Example 41, 1-(2-Cyclopropyl-imidazo[5,1-b]thiazol-3-yl)-2-(7-oxa-bicyclo[2.2.1]hept-2-yl)-ethanol] | 93.4 nM | 2340 nM | 
19 | O[C@H](c1c(C(F)(F)F)sc2cncn12)C1CCCCC1 [Example 63a, (S)-Cyclohexyl-(2-trifluoromethyl-imidazo[5,1-b]thiazol-3-yl)-methanol] | 20.9 nM | 341 nM | 
20 | CC(CC(O)c1c(C2CC2)sc2cncn12)C1CCCCC1 (stereo not shown) [Example 65, 3-Cyclohexyl-1-(2-cyclopropyl-imidazo[5,1-b]thiazol-3-yl)-butan-1-ol] | 124 nM | 931 nM | 
21 | CCC(C1CCCCC1)C(O)c1c(C2CC2)sc2cncn12 (stereo not shown) [Example 66, 2-Cyclohexyl-1-(2-cyclopropyl-imidazo[5,1-b]thiazol-3-yl)-butan-1-ol] | 1570 nM | > 10200 nM | 

More lines, in order of falling IC50 [1], values ahead:

Row | IC50 [1] | IC50 [2, 3] | SMILES | IC50 ([2]; hTDO activity (IC50 in nM))
22 | 20.5 nM | 356 nM | O[C@@H](CC1CCCC1)c1c(C2CC2)sc2cncn12 [Example 24a, (S)-2-Cyclopentyl-1-(2-cyclopropyl-imidazo[5,1-b]thiazol-3-yl)-ethanol] | 
23 | 20 nM | 494 nM | O[C@@H](c1ccccc1)c1c(C2CC2)sc2cncn12 [Example 50a, (S)-(2-Cyclopropyl-imidazo[5,1-b]thiazol-3-yl)-phenyl-methanol] | 
24 | 19.5 nM | 262 nM | CC1(C)CCC(C[C@H](O)c2c(C3CC3)sc3cncn23)C1 (stereo partly drawn) [Example 34a, (S)-1-(2-Cyclopropyl-imidazo[5,1-b]thiazol-3-yl)-2-(3,3-dimethyl-cyclopentyl)-ethanol] | 
25 | 18.8 nM | 287 nM | CC1(C)CCC(C(O)c2c(C3CC3)sc3cncn23)C1 (stereo not shown) [Example 47, (2-Cyclopropyl-imidazo[5,1-b]thiazol-3-yl)-(3,3-dimethyl-cyclopentyl)-methanol] | 
26 | 18.5 nM | 2260 nM | OC(c1c([C@@H]2C[C@H]2F)sc2cncn12)C1CCCCC1 (relative stereo) [Example 187, Cyclohexyl-[2-(trans-2-fluoro-cyclopropyl)-imidazo[5,1-b]thiazol-3-yl]-methanol] | 
27 | 17.2 nM | 384 nM | CC1CCCC(C(O)c2c(C3CC3)sc3cncn23)C1 (stereo not shown) [Example 27, (2-Cyclopropyl-imidazo[5,1-b]thiazol-3-yl)-(3-methyl-cyclohexyl)-methanol] | 
28 | 16.5 nM | 375 nM | Cc1sc2cncn2c1[C@@H](O)CC1CCCCC1 [Example 5a, (S)-2-Cyclohexyl-1-(2-methyl-imidazo[5,1-b]thiazol-3-yl)-ethanol] | 
29 | 15.5 nM | 386 nM | CC(C)c1sc2cncn2c1[C@@H](O)CC1CCCCC1 [Example 4a, (S)-2-Cyclohexyl-1-(2-isopropyl-imidazo[5,1-b]thiazol-3-yl)-ethanol] | 
30 | 15 nM | 328 nM | CC1(C)CC[C@@H]([C@H](O)c2c(C3CC3)sc3cncn23)C1 [Example 47a, (S)-(2-Cyclopropyl-imidazo[5,1-b]thiazol-3-yl)-((R)-3,3-dimethyl-cyclopentyl)-methanol] | 
31 | 12.1 nM | 454 nM | CC1CCC(C(O)c2c(C3CC3)sc3cncn23)C1 (stereo not shown) [Example 30, (2-Cyclopropyl-imidazo[5,1-b]thiazol-3-yl)-(3-methyl-cyclopentyl)-methanol] | 
32 | 11.7 nM | 603 nM | CC(C)c1sc2cncn2c1[C@@H](O)C1CCCCC1 [Example 3a, (S)-Cyclohexyl-(2-isopropyl-imidazo[5,1-b]thiazol-3-yl)-methanol] | 
33 | 10.3 nM | 268 nM | O[C@@H](CC1CCCCC1)c1c(C2CC2)sc2cncn12 [Example 2a, (S)-2-Cyclohexyl-1-(2-cyclopropylimidazo[5,1-b]thiazol-3-yl)ethan-1-ol] | 
34 | 8.4 nM | 70.6 nM | CC1CCCC1C(O)c1c(C2CC2)sc2cncn12 (stereo not shown) [Example 48, (2-Cyclopropyl-imidazo[5,1-b]thiazol-3-yl)-(2-methyl-cyclopentyl)-methanol] | 
35 | 7.5 nM | 115 nM | O[C@H](c1c(C2CC2)sc2cncn12)C1CCCCC1 [Example 1a, (S)-Cyclohexyl(2-cyclopropylimidazo[5,1-b]thiazol-3-yl)methanol] | 
36 | 5.99 nM | 190 nM | CC1(C)CC[C@H]([C@H](O)c2c(C3CC3)sc3cncn23)C1 [Example 47b, (S)-(2-Cyclopropyl-imidazo[5,1-b]thiazol-3-yl)-((S)-3,3-dimethyl-cyclopentyl)-methanol] | 
37 | 5.03 nM | 246 nM | CC1(C)CC([C@H](O)c2c(C3CC3)sc3cncn23)C1 [Example 36a, (S)-(2-Cyclopropyl-imidazo[5,1-b]thiazol-3-yl)-(3,3-dimethyl-cyclobutyl)-methanol] | 
38 | 4.37 nM | 42.5 nM | CC1([C@H](O)c2c(C3CC3)sc3cncn23)CCCC1 [Example 48a, (S)-(2-Cyclopropyl-imidazo[5,1-b]thiazol-3-yl)-(1-methyl-cyclopentyl)-methanol] | 
